From patent US9790180B2, “Piperidine derivatives as HDAC1/2 inhibitors” (Acetylon Pharmaceuticals, Inc., priority 2014, dated 2017)
Converted amounts (≈) assume the structure as drawn. Like-named read-outs stand apart in the source and are kept apart here.

Assays:
HDAC3 = HDAC3 (Homo sapiens (Human), UniProt O15379); assay: HDAC enzyme assay, HDAC3; assay type: biochemical
Experimental: (§1) Compounds for testing were diluted in DMSO to 50 fold the final concentration and a ten point three fold dilution series was made. The compounds were diluted in assay buffer (50 mM HEPES, pH 7.4, 100 mM KCl, 0.001% Tween-20, 0.05% BSA, 20 μM tris(2-carboxyethyl)phosphine) to 6 fold their final concentration. The HDAC enzymes (purchased from BPS Biosciences) were diluted to 1.5 fold their final concentration in assay buffer and pre-incubated with the compounds for 24 hours prior to addition of the substrate.
(§2) The substrate tripeptide substrate 3 (synthesized in house) for each enzyme was equal to the Km as determined by a substrate titration curve. The substrates were diluted in assay buffer at 6× their final concentration with 0.3 μM sequencing grade trypsin (Sigma). The substrate/trypsin mix was added to the enzyme/compound mix, the plate was shaken for 60 seconds and placed into a Spectramax M5 microtiter plate reader. The development of fluorescence was monitored for 30 min and the linear rate of the reaction was calculated. The IC50 was determined using Graph Pad Prism by a four parameter curve fit. The IC50 values obtained for the compounds of this invention are found in Table 1. Examples of the curves are found in FIGS. 1 and 4.

Microsome stability = assay type: in vitro ADME
Solubility = assay type: physicochemical
hERG channel = hERG channel (Homo sapiens (Human), UniProt Q12809); assay: hERG assay (QPatch, CHO cell line expressing hERG channels); assay type: cell-based; conditions: for hERG: In vitro tox
hERG channel, sequence (Q12809 whole entry): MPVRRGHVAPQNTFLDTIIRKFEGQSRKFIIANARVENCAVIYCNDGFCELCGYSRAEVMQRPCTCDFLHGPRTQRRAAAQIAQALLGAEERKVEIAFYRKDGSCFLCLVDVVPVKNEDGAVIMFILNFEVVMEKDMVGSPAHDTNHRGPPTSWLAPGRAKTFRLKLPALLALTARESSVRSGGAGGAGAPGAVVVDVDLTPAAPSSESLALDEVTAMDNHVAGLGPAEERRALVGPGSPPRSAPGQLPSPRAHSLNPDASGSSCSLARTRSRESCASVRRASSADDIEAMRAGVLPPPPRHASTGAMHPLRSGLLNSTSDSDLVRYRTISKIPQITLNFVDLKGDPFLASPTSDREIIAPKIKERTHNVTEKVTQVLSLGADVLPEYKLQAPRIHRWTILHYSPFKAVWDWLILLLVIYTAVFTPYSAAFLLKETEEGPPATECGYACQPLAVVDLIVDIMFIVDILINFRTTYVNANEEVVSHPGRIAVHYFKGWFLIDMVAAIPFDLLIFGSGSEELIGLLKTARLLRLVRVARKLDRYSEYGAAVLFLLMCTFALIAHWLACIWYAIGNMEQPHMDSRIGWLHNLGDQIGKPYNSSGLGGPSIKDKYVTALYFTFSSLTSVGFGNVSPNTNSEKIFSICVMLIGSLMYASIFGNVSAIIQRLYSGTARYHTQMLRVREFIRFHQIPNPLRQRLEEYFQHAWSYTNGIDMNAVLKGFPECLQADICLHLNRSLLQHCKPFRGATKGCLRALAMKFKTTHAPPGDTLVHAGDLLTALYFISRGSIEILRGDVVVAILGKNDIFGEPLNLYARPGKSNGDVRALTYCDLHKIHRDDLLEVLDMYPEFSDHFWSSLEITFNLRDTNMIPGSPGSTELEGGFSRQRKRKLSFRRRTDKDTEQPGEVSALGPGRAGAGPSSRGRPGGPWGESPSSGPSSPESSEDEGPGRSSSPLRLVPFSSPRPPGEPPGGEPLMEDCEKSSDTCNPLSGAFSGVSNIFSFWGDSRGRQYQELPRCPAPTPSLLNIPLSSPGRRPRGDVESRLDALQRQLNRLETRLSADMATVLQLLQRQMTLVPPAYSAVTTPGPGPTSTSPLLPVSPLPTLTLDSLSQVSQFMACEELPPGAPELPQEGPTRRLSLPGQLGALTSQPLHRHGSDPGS
Experimental: For hERG assays, a CHO cell line stably transfected with hERG cDNA and expressing hERG channels were seeded into a QPatch plate (Sophion) at a density of 3-8×10^6 cells/ml. The cells were voltage clamped at a holding potential of −80 mV. The hERG current was activated by depolarizing at +20 mV for 5 sec, after which the current was taken back to −50 mV for 5 sec to remove the inactivation and observe the deactivating tail current. The maximum amount of tail current size was used to determine hERG current amplitude. Six doses (30, 10, 3, 1, 0.3 and 0.1 μM) of Compound 003 were chosen to obtain fitting curves and IC50. Data were analyzed using Assay Software provided by Sophion and Graphpad Prism.

[1] = system: fetal β-like globin (HbG, γ); assay: Fetal globin induction assay in CD34+ cells isolated from human bone marrow; assay type: cell-based; conditions: for Cell based assay potency: lowest concentration to achieve a 2 fold increase in fetal globin gene expression over baseline
Experimental: CD34+ cells isolated from human bone marrow were cultured in vitro using a method described by Bradner J E (Proc Natl Acad Sci USA. 2010 Jul. 13; 107(28):12617-22), which consists of a 7 day expansion phase in media that supports differentiation of cells towards the erythroid lineage followed by a differentiation phase for 3 days where erythroid cell development continues. At the end of the differentiation period these cells are primarily late erythroblasts. mRNA levels were determined by quantitative real time PCR using primer/probe sets designed to adult major β-globin (β), adult minor β-globin (δ), fetal β-like globin (HbG, γ), and embryonic β-like globin (ε). Protein levels were determined by flow cytometry using fluorescent antibodies against fetal hemoglobin (HbF) or adult hemoglobin (HbA).
In the experiment shown in FIG. 3, cells were differentiated in the presence of vehicle (DMSO) 0.3, 1 and 3 μM of Compound A, and of 0.3, 1, and 3 μM of Compound 003. In the experiment shown in FIG. 6, cells were differentiated in the presence of vehicle (DMSO) 0.3, 1 and 3 μM of Compound A, and of 0.3, 1, and 3 μM of Compound 005. Globin mRNA levels were determined at day 3 of differentiation.

HDAC1 = HDAC1 (Homo sapiens (Human), UniProt Q13547); assay: HDAC enzyme assay, HDAC1; assay type: biochemical
HDAC1, sequence (Q13547 whole entry): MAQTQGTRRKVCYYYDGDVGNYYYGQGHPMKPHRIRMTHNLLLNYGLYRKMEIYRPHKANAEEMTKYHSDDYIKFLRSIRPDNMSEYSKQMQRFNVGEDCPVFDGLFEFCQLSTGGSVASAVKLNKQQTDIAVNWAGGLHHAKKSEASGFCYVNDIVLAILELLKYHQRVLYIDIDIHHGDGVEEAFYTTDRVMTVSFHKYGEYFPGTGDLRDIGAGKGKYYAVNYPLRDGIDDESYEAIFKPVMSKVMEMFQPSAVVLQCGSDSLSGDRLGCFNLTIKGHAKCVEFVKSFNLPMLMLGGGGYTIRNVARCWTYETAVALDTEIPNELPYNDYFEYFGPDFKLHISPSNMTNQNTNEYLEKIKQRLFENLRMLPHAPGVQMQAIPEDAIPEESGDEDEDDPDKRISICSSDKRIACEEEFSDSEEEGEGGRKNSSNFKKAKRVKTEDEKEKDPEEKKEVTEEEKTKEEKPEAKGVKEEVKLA
Experimental: as §1, §2

HDAC2 = HDAC2 (Homo sapiens (Human), UniProt Q92769); assay: HDAC enzyme assay, HDAC2; assay type: biochemical
HDAC2, sequence (Q92769 whole entry): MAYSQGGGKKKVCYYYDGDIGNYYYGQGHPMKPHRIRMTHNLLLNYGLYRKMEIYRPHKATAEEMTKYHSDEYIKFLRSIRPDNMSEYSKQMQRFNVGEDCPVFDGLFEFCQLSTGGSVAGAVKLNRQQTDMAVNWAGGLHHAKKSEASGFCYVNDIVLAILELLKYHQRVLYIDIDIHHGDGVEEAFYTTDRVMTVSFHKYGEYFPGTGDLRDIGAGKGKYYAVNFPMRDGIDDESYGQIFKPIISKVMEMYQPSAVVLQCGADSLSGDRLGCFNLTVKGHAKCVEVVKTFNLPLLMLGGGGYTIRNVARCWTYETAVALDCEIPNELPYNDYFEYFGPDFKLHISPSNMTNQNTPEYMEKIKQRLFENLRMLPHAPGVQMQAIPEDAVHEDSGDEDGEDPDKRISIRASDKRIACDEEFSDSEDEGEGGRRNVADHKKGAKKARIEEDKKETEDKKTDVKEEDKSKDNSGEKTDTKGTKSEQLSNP
Experimental: as §1, §2

[2] = Rat cassette pharmacokinetics; assay type: in vivo; conditions: male, SD, plasma; for bioavailability: 5 mg/kg, rat, oral AUC to IV AUC, dose adjusted; for AUC / Cmax / half-life / CL renal: rat cassette dosing; for AUC / Cmax / half-life: 5 mg/kg PO; for half-life: read-out: PO T½ (converted); for CL renal: IV 1 mg/kg, read-out: IV Clr. (converted)
Experimental: Male SD rats were fasted overnight. Compounds of the invention were dissolved in dimethyl acetamide at 10 times the final concentration, then Solutol HS 15 (BASF) was added to a final concentration of 10%. Finally 80% saline was added and vortexed to achieve a clear solution. For the IV dosing three animals were injected via the foot dorsal vein with 1 mg/kg compound. For the PO dosing 5 mg/kg of compound was delivered by oral gavage. Blood was collected via the tail vein into K2EDTA tubes at 5 minutes, 15 minutes, 30 minutes, 1 hour, 2 hours, 4 hours, 8 hours and 24 hours after dosing. The blood was centrifuged at 2000 g for 5 minutes at 4° C. to obtain plasma. The plasma was extracted with acetonitrile and the level of compound was analyzed by LC/MS/MS. The level of compound in plasma was calculated from a standard curve in rat plasma. The IV clearance and area under the curve were calculated using WinNonLin software. The dose adjusted area under the curve for the IV and oral dosing were used to calculate the oral bioavailability.

[3] = system: CYP1A2, CYP2C9, CYP2C19, CYP3A4, CYP2D6; assay: Cyp inhibition in human liver microsomes; assay type: in vitro ADME; conditions: for Cyp: In vitro tox, human liver microsomes
Experimental: For Cyp inhibition, human live microsomes from BD Gentest were incubated with Compound 003 (10, 3.33, 1.11, 0.37, 0.12, 0.04, 0.01 μM) and substrate (CYP1A2: Phenacetin at 30 μM; CYP2C9: Diclofenac at 10 μM; CYP2C19: S-Mephenytoin at 35 μM; CYP3A4: Midazolam at 5 μM and Testosterone at 80 μM; CYP2D6: Bufuralol at 10 μM) for the following incubation times: CYP1A2, 2C9, 2D6: 10 minutes, 37° C.; CYP2C19: 45 minutes, 37° C.; CYP3A4: 5 minutes, 37° C. Substrate conversion was measured by liquid chromatography/mass spectrometry/mass spectrometry (LC/MS/MS). Inhibition was calculated by curve fitting in Graph Pad Prism.

[4] = system: bacterial tester strains TA98, TA100, TA1535 and TA97a and E. coli tester strain WP2 uvrA; assay: Ames genotoxicity (bacterial reverse mutation)
Experimental: For genotoxicity, bacterial tester strains TA98, TA100, TA1535 and TA97a as described by Ames et al. (1975) and the E. coli tester strain WP2 uvrA as described by Green and Muriel (1976) were incubated with Compound 003 at 250, 75, 25, 7.5, 2.5, 0.75, 0.25, and 0.075 μg/well in 24 well plates either with or without liver homogenate (S9) purchased commercially (MolTox; Boone, N.C.) prepared from male Sprague Dawley rats that have been injected intraperitonealy with Aroclor 1254 (200 mg/mL in corn oil), at a dose of 500 mg/kg, 5 days before sacrifice. Mutagenicity is evaluated by counting the number of colonies that form on non-permissive media.

[5] = system: human peripheral blood lymphocytes (HPBL); assay: Micronucleus formation assay; assay type: cell-based
Experimental: Genotoxicity was further evaluated by micronucleus formation assay in human peripheral blood lymphocytes (HPBL). HPBL were obtained from healthy donors and exposed to Compound 003 at […] for 4 hours with or without S9 activation. The cells were washed with PBS and incubated in complete medium with 6 μg/ml cytocholasin B for 24 hours. The cells were then lysed, fixed, and mounted on microscope slides. The number of mononucleated, binucleated, and micronucleated cells was counted under blinded conditions.

Gata2 mRNA = Gata2 mRNA induction in erythroid progenitors; assay type: cell-based, human; conditions: primary erythroid progenitors, 3 days differentiation, relative to beta-actin mRNA (FIG. 7)
Excerpt: Human bone marrow derived CD34+ cells were expanded for 7 days as described by Sankaran et al., Science, vol. 322(5909), pp. 1839-42 (2008). Cells were then differentiated, in the presence of the indicated concentration of Compound 005, Compound A (another known HDAC1/2 inhibitor), or vehicle control (DMSO), for 3 days in media supporting erythropoiesis (Hu et al., “Isolation and functional characterization of human erythroblasts at distinct stages: implications for understanding of normal and disordered erythropoiesis in vivo”, Blood, vol. 121(16), pp. 3246-53 ([…])). Gata2 mRNA was determined using quantitative real time PCR and expressed relative to the level beta-actin mRNA control.

[6] = 24 hours pre-incubation with enzyme, read-out: IC50 (nM) HDAC3
[7] = 24 hours pre-incubation with enzyme, read-out: IC50 (nM) HDAC1
[8] = 24 hours pre-incubation with enzyme, read-out: IC50 (nM) HDAC2

HDAC3, sequence (O15379 whole entry): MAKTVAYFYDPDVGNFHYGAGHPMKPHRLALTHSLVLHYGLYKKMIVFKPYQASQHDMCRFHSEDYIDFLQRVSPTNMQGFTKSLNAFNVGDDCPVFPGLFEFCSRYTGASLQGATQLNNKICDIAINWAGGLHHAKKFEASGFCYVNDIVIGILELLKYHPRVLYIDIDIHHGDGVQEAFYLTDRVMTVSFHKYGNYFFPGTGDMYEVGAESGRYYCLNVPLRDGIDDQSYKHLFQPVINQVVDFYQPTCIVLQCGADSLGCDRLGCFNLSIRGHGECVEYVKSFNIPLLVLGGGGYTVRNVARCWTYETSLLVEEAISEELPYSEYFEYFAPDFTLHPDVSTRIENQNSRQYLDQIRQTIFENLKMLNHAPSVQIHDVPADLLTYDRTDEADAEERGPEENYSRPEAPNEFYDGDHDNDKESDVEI
HDAC3, sequence (Q9Y618 395-489 partner): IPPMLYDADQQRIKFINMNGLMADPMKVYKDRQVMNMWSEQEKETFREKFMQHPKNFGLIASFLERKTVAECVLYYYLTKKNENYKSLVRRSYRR

For `CC(C)NC(=O)N1CCC(C)(Nc2ncc(C(=O)Nc3cc(-c4cccs4)ccc3N)cn2)CC1` [Compound 001], which IC50 (HDAC3; [6]) is on record?
Its IC50 is 427 nM.

What about the Microsome stability (Microsome stability) of the same molecule?
The Microsome stability was 11 min.

And the solubility (Solubility)?
Its solubility is 16.9 µM (≈ 8.34 µg/mL).

And the hERG (hERG channel)?
Its hERG is greater than 30 µM.

What about the “Cell based assay potency” value [1] of the same molecule?
Its value is 3000 nM.

And the IC50 (HDAC1; [7])?
Its IC50 is 6.5 nM.

What about the IC50 (HDAC2; [8]) of the same molecule?
The IC50 was 38 nM.

And the bioavailability [2]?
Its bioavailability is 63%.

What about the AUC [2] of the same molecule?
Its AUC is 5960 ng·h/mL.

What about the Cmax [2] of the same molecule?
Its Cmax is 988 ng/mL.

And the half-life [2]?
The half-life was 3.8 h.

And the CL renal [2]?
Its CL renal is 8.83 mL/min/kg.

For `CC(C)C1(Nc2ncc(C(=O)Nc3cc(-c4cccs4)ccc3N)cn2)CCN(C(=O)N2CCN(C)CC2)CC1` [Compound 002], which IC50 (HDAC3; [6]) is on record?
The IC50 was 203 nM.

And the solubility (Solubility)?
Its solubility is 42.7 µM (≈ 24 µg/mL).

And the Cyp [3]?
Its Cyp is greater than 10 µM.

And the hERG (hERG channel)?
The hERG was greater than 30 µM.

And the “Cell based assay potency” value [1]?
Its value is 3000 nM.

What about the IC50 (HDAC1; [7]) of the same molecule?
Its IC50 is 7 nM.

And the IC50 (HDAC2; [8])?
The IC50 was 28 nM.

And the bioavailability [2]?
The bioavailability was 142%.

What about the AUC [2] of the same molecule?
Its AUC is 6090 ng·h/mL.

And the Cmax [2]?
The Cmax was 1010 ng/mL.

And the half-life [2]?
Its half-life is 5.9 h.

What about the CL renal [2] of the same molecule?
Its CL renal is 20 mL/min/kg.

With `Nc1ccc(-c2cccs2)cc1NC(=O)c1cnc(NC2CCN(C(=O)N3CCOCC3)CC2)nc1` [Compound 003] as the molecule, how does the Ames ([4]; In vitro tox) read?
Its Ames is “Neg”.

What about the “number of revertant colonies” value ([4]; any strain, with or without S9 activation) of the same molecule?
The value was “did not increase”.

And the MN ([5]; In vitro tox)?
The MN was “Neg”.

What about the “number of micronucleated cells” value ([5]; any concentration, 4 hours with or without S9 activation) of the same molecule?
Its value is “did not increase”.

And the IC50 (HDAC3; [6])?
Its IC50 is 204 nM.

And the Microsome stability (Microsome stability)?
The Microsome stability was 4.7 min.

What about the solubility (Solubility) of the same molecule?
Its solubility is 54 µM (≈ 27.4 µg/mL).

What about the Cyp [3] of the same molecule?
The Cyp was greater than 10 µM.

And the “inhibition of activity of any Cyp” value ([3]; up to 10 μM)?
Its value is “did not inhibit”.

What about the hERG (hERG channel) of the same molecule?
Its hERG is greater than 30 µM.

What about the “inhibition of the activity of the hERG channel” value (hERG channel; at the highest concentration of 30 μM) of the same molecule?
The value was “did not inhibit”.

What about the “Cell based assay potency” value [1] of the same molecule?
The value was 3000 nM.

And the IC50 (HDAC1; [7])?
Its IC50 is 15 nM.

And the IC50 (HDAC2; [8])?
Its IC50 is 56 nM.

And the bioavailability [2]?
The bioavailability was 118%.

What about the AUC [2] of the same molecule?
Its AUC is 59900 ng·h/mL.

And the Cmax [2]?
Its Cmax is 2320 ng/mL.

What about the half-life [2] of the same molecule?
Its half-life is 17 h.

What about the CL renal [2] of the same molecule?
The CL renal was 2 mL/min/kg.

Which IC50 (HDAC3; reference compound, read-out: IC50 for HDAC3) does the source give for `Nc1ccc(-c2cccs2)cc1NC(=O)c1ccc2nc(N3CCNCC3)ccc2c1` [Compound A, reference compound] here?
The IC50 was roughly 114 nM.

And the “induction of % HbG” value ([1]; primary erythroid progenitors, 3 days differentiation (FIG. 6))?
The value was “equivalent dose and time-dependent induction”.

What about the IC50 (HDAC1; reference compound, read-out: IC50 for HDAC1) of the same molecule?
The IC50 was roughly 4 nM.

And the “induction of Gata2 mRNA” value (Gata2 mRNA)?
The value was “equivalent dose and time-dependent induction”.

What about the IC50 (HDAC2; reference compound, read-out: IC50 for HDAC2) of the same molecule?
The IC50 was roughly 15 nM.
